For experiment [1], the target named is binding of HIV associated glycoprotein gp120 and the integrin α4β7 (Homo sapiens (Human), UniProt P13612+P26010). As to the kind of experiment: ELISA assay of gp120 binding to integrin α4β7. On the set-up: species or system human (α4β7); HIV-1 ADA strain (gp120). As to conditions: inhibition of gp120/α4β7 binding, triplicate with two anti-gp120 antibodies, read-out: IC50 a4b7. The text has this: A sandwich assay was developed to screen for compounds that inhibit the binding of a4b7 to gp120. Without inhibitors, gp120 and a4b7 bind and this complex can be identified by addition of a mouse anti-gp120 mAb (step 3). This a4b7*gp120anti-gp120 mAb complex is then sequestered on the bottom surface of a 96 welled-plate coated with an anti-mouse secondary mAb (step 4). The complex is then detected by addition of a biotinylated primary mAb against a4b7 (step 5) and detected using an HRP-avidin (step 6). A positive binding event is identified by the presence of HPR activity within each well. The addition of an inhibitor (step 2) blocks the binding between gp120 and a4b7 leading to a lack or reduction of HRP activity as shown in steps 2-5 at the bottom of the figure.
binding of HIV associated glycoprotein gp120 and the integrin α4β7, sequence (P13612 whole entry, looked up): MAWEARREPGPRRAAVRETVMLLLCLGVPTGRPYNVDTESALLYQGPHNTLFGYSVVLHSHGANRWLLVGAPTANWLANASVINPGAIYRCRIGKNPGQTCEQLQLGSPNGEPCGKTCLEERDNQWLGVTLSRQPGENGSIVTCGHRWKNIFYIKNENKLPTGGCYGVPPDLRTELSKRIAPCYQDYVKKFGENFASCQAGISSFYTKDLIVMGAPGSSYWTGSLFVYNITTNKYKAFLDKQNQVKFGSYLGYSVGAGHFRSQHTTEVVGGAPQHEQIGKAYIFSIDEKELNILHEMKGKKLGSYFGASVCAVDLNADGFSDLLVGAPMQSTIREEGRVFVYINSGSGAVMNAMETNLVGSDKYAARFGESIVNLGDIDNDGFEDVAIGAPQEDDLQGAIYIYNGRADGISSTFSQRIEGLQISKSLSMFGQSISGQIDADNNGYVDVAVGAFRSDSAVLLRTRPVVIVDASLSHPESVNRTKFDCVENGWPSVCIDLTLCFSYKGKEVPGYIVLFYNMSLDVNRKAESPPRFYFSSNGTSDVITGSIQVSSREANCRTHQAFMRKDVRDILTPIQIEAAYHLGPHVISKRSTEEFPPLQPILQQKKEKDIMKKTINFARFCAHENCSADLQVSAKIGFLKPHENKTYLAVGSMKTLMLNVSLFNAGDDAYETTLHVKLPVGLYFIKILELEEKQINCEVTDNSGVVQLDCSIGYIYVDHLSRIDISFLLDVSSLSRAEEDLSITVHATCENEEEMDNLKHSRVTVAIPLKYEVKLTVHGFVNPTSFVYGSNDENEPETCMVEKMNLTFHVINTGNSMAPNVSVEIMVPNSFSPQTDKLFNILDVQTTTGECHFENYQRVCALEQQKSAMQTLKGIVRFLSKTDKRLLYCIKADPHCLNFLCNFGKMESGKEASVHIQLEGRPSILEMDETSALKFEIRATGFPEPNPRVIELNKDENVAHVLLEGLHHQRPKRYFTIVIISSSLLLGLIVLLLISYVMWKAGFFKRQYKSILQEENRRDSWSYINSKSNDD
binding of HIV associated glycoprotein gp120 and the integrin α4β7, sequence (P26010 whole entry, looked up): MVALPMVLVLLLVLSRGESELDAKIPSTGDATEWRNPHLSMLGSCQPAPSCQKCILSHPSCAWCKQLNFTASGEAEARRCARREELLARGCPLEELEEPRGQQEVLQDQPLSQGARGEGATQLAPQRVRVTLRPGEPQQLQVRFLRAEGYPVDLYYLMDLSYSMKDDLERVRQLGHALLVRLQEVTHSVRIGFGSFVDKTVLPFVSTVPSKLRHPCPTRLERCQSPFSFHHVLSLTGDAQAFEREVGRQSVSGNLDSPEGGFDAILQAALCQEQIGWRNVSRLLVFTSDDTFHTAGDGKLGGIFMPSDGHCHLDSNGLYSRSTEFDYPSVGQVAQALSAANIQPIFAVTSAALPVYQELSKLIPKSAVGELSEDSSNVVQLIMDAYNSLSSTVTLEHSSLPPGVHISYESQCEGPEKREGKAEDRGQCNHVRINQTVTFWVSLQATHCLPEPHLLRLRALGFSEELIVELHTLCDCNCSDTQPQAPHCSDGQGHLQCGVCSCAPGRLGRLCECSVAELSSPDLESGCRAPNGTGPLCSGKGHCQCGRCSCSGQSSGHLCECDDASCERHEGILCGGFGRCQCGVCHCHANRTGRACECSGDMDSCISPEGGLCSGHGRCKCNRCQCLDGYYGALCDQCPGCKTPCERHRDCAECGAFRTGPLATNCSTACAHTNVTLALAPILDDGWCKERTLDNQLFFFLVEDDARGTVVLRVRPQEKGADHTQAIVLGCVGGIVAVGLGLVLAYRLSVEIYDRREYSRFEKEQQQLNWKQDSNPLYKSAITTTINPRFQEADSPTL
Step 1: Prepare the antigen plate • a. Prepare a PBS stock solution containing 1 μM gp120 and 1 μM α4β7 • b. Add a 200 μL aliquot to each well of the antigen plate.
Step 2: Add the inhibitor. • a. Add 20 μL of a 10× stock of the inhibitor in PBS pH 7.2 containing 1% DMSO • b. Incubate at 4° C. for 6 h with shaking. This delivers the antigen plate.
Step 3: Prepare the binding plate. • a. Aspirate each well of the binding plate • b. Wash three times with 200 μL of wash buffer (PBS pH 7.2, containing 0.05% Tween 20). • c. Add 100 μL of a 0.5 μg/mL stock of the mouse anti-gp120 mAb in PBS pH 7.2 • d. Shake for 1 h at 23° C.
Step 4: Sequester the gp120*α4β7 complex. • a. Aspirate each well of the binding plate. • b. Wash three times with 200 μL of wash buffer. • c. Transfer the contents of the antigen plate to the corresponding wells in the binding plate. • d. Shake for 1 h at 23° C.
Step 5: Develop the binding plate. • a. Aspirate each well of the binding plate. • b. Wash three times with 200 μL of wash buffer. • c. Add 100 μL of a 0.1 μg/mL of the rat anti-α4β7 mAb. • d. Shake for 1 h at 37° C. • e. Aspirate each well of the binding plate. • f. Wash three times with 200 μL of wash buffer. • g. Add 100 μL of 0.2 μg/mL solution of the HRP-conjugated strepavidin • h. Shake for 1 h at 37° C. • i. Aspirate each well of the binding plate. • j. Wash three times with 200 μL of wash buffer. • k. Develop using QuantaBlu fluorogenic peroxidase substrate (ThermoScientific) • l. Evaluate the fluorescence output on a HTS7000 plate reader (Perkin Elmer).
The ELISA assay was applied to screen the compounds in the table, below, to further characterize their activity against the binding of HIV associated glycoprotein gp120 and the integrin α4β7.
The five-step assay developed was applied to screen the compounds in the table below. […] The experiments were run in triplicate using two antibodies against gp120.
A general note: In an ELISA, binding on a coated surface is turned into a signal by an enzyme label.

A further experiment has as its system HIV-1-LAI strain. As to the kind of experiment: Antiviral assay in PHA-P-activated PBMC, RT activity in supernatants. The class given is cell-based. As to conditions: day 7 RT activity. Here is the method:
Phytohemagglutinin (PHA)-P-activated PBMC were infected with the reference lymphotropic HIV-1-LAI strain (Wain-Hobson et al., Science, vol. 252, no. 5008, pp. 961-965 (1991)). This virus was amplified in vitro with PHA-P-activated blood mononuclear cells. Viral stocks were titrated using PHA-P-activated PBMC, and 50% tissue culture infectious doses (TCID50) was calculated using Karber's formula. PBMC were pretreated for 30 min by two concentrations of each molecule and infected with 125 TCID50 of this HIV-1 strain. AZT and T20 were used as reference anti-HIV molecule. Molecules were maintained throughout the culture, and cell supernatants were collected at day 7 post-infection and stored at −20° C. Viral replication was measured by quantifying reverse transcriptase (RT) activity in these cell culture supernatants using the Lenti RT activity kit (Cavidi). In parallel, cytotoxicity was evaluated on day 7 in uninfected PHA-P-activated PBMC using the colorimetric methyl-tetrazolium salt assay (MTS/PMS; Promega). Experiments were performed in triplicate and the inhibition of viral replication of the compounds was calculated using SoftMaxPro software (Molecular Devices Inc. CA, USA).
Dilutions in Cell Culture Medium Containing 0.1% DMSO (Final Concentration)

The test system of experiment [2] is HIV-1 R9 (CXCR4-tropic strain). As to the kind of experiment: Infectivity assay in HeLa reporter cell line (HeLa-CD4-Bgal). The following applies: HeLa reporter cells, HIV-1 R9, 36 h. The format is cell-based. Here is the method:
FIG. 2: Experimental outline to evaluate HIV infectivity in a HeLa reporter cell line HIV-1 particles are produced in 293T cells transfected with R9 HIV DNA in the absence of test compounds. Particles are collected, titrated by measuring the amount of p24 antigen and frozen until their use. In the infectivity assay HeLa-CD4-Bgal cells are preincubated for 20 min in the absence or presence of test compounds, and the viral particles are added. Infectivity is monitored with a beta-galactosidase enzymatic reaction 36 hours after infection. Test compounds and virus are left with the cells throughout the entire infection period.
Compounds were evaluated with a HeLa reporter cell line containing the bacterial b-galactosidase gene inserted in the cell chromosome under control of the viral LTR. […] HIV-1 R9 (CXCR4-tropic strain) was used in these experiments to challenge cells. Viruses were first produced by transfection of 293T cells with a plasmid DNA expressing HIV-1. Viral particles were harvested and frozen until use. Infectivity assays were performed incubating cells in the absence or presence of compounds for 20 min before addition of virus. Upon infection, virus and compounds were left with the cells for the entire period of infection (36 h). At that time the extent of infection was evaluated using a luminescent substrate of Bgal. FIG. 2 depicts the experimental outline used to evaluate the anti-HIV activity of lead compounds. Controls with known ARVs include AZT, a reverse-transcriptase inhibitor (RTI), and the HIV integrase inhibitor raltegravir. Controls with vehicle alone are also included

In the case of `CCC(=O)Nc1cccc(C(=O)Nc2ccccc2C(=O)NCc2ccc(C)cc2)c1` [Compound 12], the IC50 (in general, the concentration that gives 50% inhibition) in experiment [1] was 2.19 nM.

For the compound `CC1(c2ccc(F)cc2)NC(=O)N(CC(=O)Nc2ccccc2C(=O)NCc2ccccc2)C1=O` (stereo not drawn) [Compound 7], the IC50 in experiment [1] was 0.46 nM.

`O=C(Cc1ccc(F)cc1)Nc1ccccc1C(=O)NCc1ccccc1` [Compound 2]: the IC50 in experiment [1] is 0.89 nM. In addition, the “inhibition of viral replication” value is listed as 16% ± 4^ with HIV-1-LAI strain (3.2 nM); −6% ± 22^ in the experiment with HIV-1-LAI strain (16 nM); 4% ± 8 in the experiment on HIV-1-LAI strain (80 nM); 6% ± 16 with HIV-1-LAI strain (400 nM); 22% ± 3^ in the experiment on HIV-1-LAI strain (2000 nM); 87% ± 9^ with HIV-1-LAI strain (10000 nM). Besides, in the experiment on HIV-1-LAI strain, the ED50 is given as 5590 ± 441 nM. For the same compound, in the experiment with HIV-1-LAI strain, the ED70 amounted to 8021 ± 710 nM. This compound displayed an ED90 with HIV-1-LAI strain of 9826 ± 246 nM. Moreover, the “Inhibition of HIV infectivity in %” value in experiment [2] (0.008 μM) is given as 69.28%; in experiment [2] (0.04 μM), 51.94%; in experiment [2] (0.2 μM), 62.3%; in experiment [2] (1 μM), 60.66%; in experiment [2] (5 μM) it was 13.81%; in experiment [2] (25 μM) it was 2.76%. The “Inhibition of HIV infectivity in %” value in experiment [2] (125 μM) was 4.1%. For the same compound, a half-maximal response in experiment [2] (EC50) required 3400 nM. Further, in experiment [2], the EC90 (as a rule, the point of the concentration-response curve where the effect stands at 90%) amounted to 30600 nM.

As to enfuvirtide, the “inhibition of viral replication” value with HIV-1-LAI strain (0.32 nM) was −9% ± 3; in the experiment on HIV-1-LAI strain (1.6 nM), 5% ± 15; in the experiment with HIV-1-LAI strain (8 nM), −13% ± 4; with HIV-1-LAI strain (40 nM) it was 100% ± 0; with HIV-1-LAI strain (200 nM), 100% ± 0; in the experiment with HIV-1-LAI strain (1000 nM), 100% ± 0. Besides, in the experiment with HIV-1-LAI strain, the ED50 is recorded as 28.9 nM. The compound further gave an ED70 with HIV-1-LAI strain of 30 nM. In addition, the ED90 in the experiment with HIV-1-LAI strain is 31.7 nM.

Consider `O=C(CCc1ccccc1)Nc1ccccc1C(=O)NCc1ccccc1` [Compound 1], for which the IC50 in experiment [1] amounted to 0.33 nM.

For `Cc1cn([C@H]2C[C@H](N=[N+]=[N-])[C@@H](CO)O2)c(=O)[nH]c1=O` [AZT, Zidovudine], the inhibition (commonly the drop in the measured response relative to a control, in per cent) at 0.00032 µM in the experiment on HIV-1-LAI strain (Human immunodeficiency virus 1, 168 h, 0.32 nM, read-out: inhibition of viral replication) was 16%. In the experiment with HIV-1-LAI strain (Human immunodeficiency virus 1, 168 h, 1.6 nM, read-out: inhibition of viral replication), the inhibition at 0.0016 µM stood at 59%. In the experiment with HIV-1-LAI strain (Human immunodeficiency virus 1, 168 h, 8 nM, read-out: inhibition of viral replication), the inhibition at 0.008 µM worked out at 95%. Further, the inhibition at 0.04 µM in the experiment on HIV-1-LAI strain (Human immunodeficiency virus 1, 168 h, 40 nM, read-out: inhibition of viral replication) is 100%. In the experiment with HIV-1-LAI strain (Human immunodeficiency virus 1, 168 h, 200 nM, read-out: inhibition of viral replication), the inhibition at 0.2 µM was 100%. In addition, in the experiment on HIV-1-LAI strain (Human immunodeficiency virus 1, 168 h, 1000 nM, read-out: inhibition of viral replication), the inhibition at 1 µM was found to be 100%. In the experiment on HIV-1-LAI strain, this compound yielded an ED50 of 1.3 nM, an ED70 of 2.5 nM and an ED90 of 6.6 nM.

On to `Cc1ccc(CNC(=O)c2ccccc2NC(=O)CN2CCc3ccccc32)cc1` [Compound 3], for which the IC50 in experiment [1] turned out to be 19.2 nM. The “Inhibition of HIV infectivity in %” value is on record as 67.64% in experiment [2] (0.008 μM); 58.63% in experiment [2] (0.04 μM); 61.6% in experiment [2] (0.2 μM); 42.22% in experiment [2] (1 μM); 12.81% in experiment [2] (5 μM); 2.39% in experiment [2] (25 μM). In experiment [2] (125 μM), the “Inhibition of HIV infectivity in %” value is 0.19%. The EC50 (commonly the midpoint of the concentration-response curve) in experiment [2] was found to be 1690 nM. Further, it took 15200 nM to reach the 90% level in experiment [2] (EC90).

Consider `O=C(CN1CCN(Cc2ccsc2)CC1)Nc1ccccc1C(=O)NCc1ccccc1` [Compound 4], for which the IC50 in experiment [1] was determined as 0.27 nM.

Consider `CC(NC(=O)c1ccccc1NC(=O)CN1C(=O)NC(Cc2ccccc2)C1=O)c1ccccc1` (stereo not drawn) [Compound 15], for which, in experiment [1], the IC50 worked out at 2.8 nM.

On to `O=C(Nc1ccccc1C(=O)NCc1ccccc1)c1cccc([N+](=O)[O-])c1` [Compound 10], for which, in experiment [1], the IC50 was determined as 1.53 nM.

Regarding `CC1CCCCN1CC(=O)Nc1ccccc1C(=O)NCc1ccccc1` (stereo not drawn) [Compound 9], in experiment [1], the IC50 came to 1.23 nM.

In the case of `Cc1ccc(CNC(=O)c2ccccc2NC(=O)CN2CCN(C(C)C(=O)NC3CC3)CC2)cc1` (stereo not drawn) [Compound 6], the IC50 in experiment [1] amounted to 0.61 nM.

For `CC(NC(=O)c1ccccc1NC(=O)CN1C(=O)C(=O)N(Cc2ccccc2)C1=O)c1ccccc1` (stereo not drawn) [Compound 5], the IC50 in experiment [1] was 0.64 nM.

Consider `CC(NC(=O)c1ccccc1NC(=O)CN1CCc2ccccc21)c1ccccc1` (stereo not drawn) [Compound 13], for which the IC50 in experiment [1] stood at 2.45 nM.
